According to ChEMBL document CHEMBL1144040, “Inhibitors of anthrax lethal factor based upon N-oleoyldopamine” (Bioorg Med Chem Lett, 2008):
Calls of active or inactive are those of the source. No cut-off for these calls is given here.

Tests used:
[1] = target: T1, Lethal factor (Bacillus anthracis, UniProt P15917); test: Inhibition of Bacillus anthracis lethal factor by FRET assay
T1 sequence (P15917 whole entry): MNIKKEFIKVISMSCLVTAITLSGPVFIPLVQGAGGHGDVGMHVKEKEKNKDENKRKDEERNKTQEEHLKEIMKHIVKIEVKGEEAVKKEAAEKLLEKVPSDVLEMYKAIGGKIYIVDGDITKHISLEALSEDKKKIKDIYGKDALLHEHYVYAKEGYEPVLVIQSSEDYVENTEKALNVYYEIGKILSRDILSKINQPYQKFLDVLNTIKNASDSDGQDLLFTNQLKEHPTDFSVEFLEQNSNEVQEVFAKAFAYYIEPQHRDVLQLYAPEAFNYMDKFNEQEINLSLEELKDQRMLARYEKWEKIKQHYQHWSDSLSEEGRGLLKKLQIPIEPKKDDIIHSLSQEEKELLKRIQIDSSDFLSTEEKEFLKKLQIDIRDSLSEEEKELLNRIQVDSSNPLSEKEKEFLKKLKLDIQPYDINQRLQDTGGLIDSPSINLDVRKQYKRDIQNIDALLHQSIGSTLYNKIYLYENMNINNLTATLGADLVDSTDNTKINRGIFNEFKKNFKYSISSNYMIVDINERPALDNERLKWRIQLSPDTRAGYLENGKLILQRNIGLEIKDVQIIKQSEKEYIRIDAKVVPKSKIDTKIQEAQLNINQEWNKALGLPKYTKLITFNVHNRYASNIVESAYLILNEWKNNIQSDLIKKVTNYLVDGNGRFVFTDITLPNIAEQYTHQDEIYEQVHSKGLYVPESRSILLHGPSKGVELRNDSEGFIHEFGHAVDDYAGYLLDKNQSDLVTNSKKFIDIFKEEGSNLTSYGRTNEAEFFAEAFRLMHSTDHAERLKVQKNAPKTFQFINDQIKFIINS

[2] = system: J774.A1; test: Inhibition of lethal factor induced toxicity in mouse J774A.1 macrophages after 4 hrs by MTT assay; type: functional, cell-based; conditions: J774.A1, 4 h
[3] = target: T1, Lethal factor; test: Inhibition of Bacillus anthracis lethal factor by cell-based assay
[4] = target: T2, Lethal factor (Bacillus anthracis) (UniProt P15917); test: Inhibition of Bacillus anthracis lethal factor up to 100 uM by FRET assay
T2 sequence (whole entry): T1 sequence (P15917 whole entry)

CCCCCCCC/C=C\CCCCCCCC(=O)NCc1ccc(O)c(O)c1
Ki [1]: 2.2 µM
IC50 [2]: 4.3 µM
IC50 [3]: 15 µM

CCCCCCCC/C=C\CCCCCCCC(=O)NCc1ccc(C(=O)NO)cc1
Ki [1]: 6.2 µM
IC50 [3]: 42 µM

CCCCCCCC/C=C/CCCCCCCC(=O)NCCc1ccc(O)c(O)c1
Activity [4]: inactive

CCCCCC(=O)NCCc1ccc(O)c(O)c1
Activity [4]: inactive

CCCCCCCCCCCCCCCCCC(=O)NCCc1ccc(O)c(O)c1
Activity [4]: inactive
